# Assay results from patent publication US20150105252A1, “SUBSTITUTED PYRAZOLES AS HERBICIDES” (E I DU PONT DE NEMOURS AND COMPANY, priority 2013, published 2015).
# How the values were obtained:
# [1] = test system: velvetleaf; assay: Test A postemergence; type: in vivo, Abutilon theophrasti
# How it was run: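 Ratings express plant response from 0 (no effect) to 100 (complete control), judged visually against untreated controls after approximately 10 days in the greenhouse. Preemergence applications were made as directed soil sprays onto seeded loam–sand mix, and postemergence applications onto 2–10 cm plants at one- to two-leaf stage.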
# [2] = test system: blackgrass; assay: Test C preemergence; type: in vivo, Alopecurus myosuroides; conditions: preemergence
# How it was run: (§1)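 Scores of 0 (no effect) to 100 (complete control) were assigned by eye after 13–15 days, comparing treated pots with controls. Soil-applied (preemergence) treatments went onto seeds in loam and sand; foliar (postemergence) treatments onto 1- to 4-leaf plants in peat medium.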
# [3] = test system: wheat; assay: Test C preemergence; type: in vivo, Triticum aestivum; conditions: preemergence
# How it was run: as §1
# [4] = test system: galium; assay: Test C preemergence; type: in vivo, Galium aparine; conditions: preemergence
# How it was run: as §1
# [5] = test system: corn; assay: Test C preemergence; type: in vivo, Zea mays; conditions: preemergence
# How it was run: as §1
# [6] = test system: pigweed; assay: Test C preemergence; type: in vivo, Amaranthus retroflexus; conditions: preemergence
# How it was run: as §1
# [7] = test system: ragweed; assay: Test C preemergence; type: in vivo, Ambrosia elation; conditions: preemergence
# How it was run: as §1
# [8] = test system: soybean; assay: Test C preemergence; type: in vivo, Glycine max; conditions: preemergence
# How it was run: as §1
# [9] = test system: oilseed rape; assay: Test C preemergence; type: in vivo, Brassica napus; conditions: preemergence
# How it was run: as §1
# [10] = test system: waterhemp; assay: Test C preemergence; type: in vivo, Amaranthus rudis; conditions: preemergence
# How it was run: as §1
# [11] = test system: wheat; assay: Test C postemergence; type: in vivo, Triticum aestivum
# How it was run: as §1
# [12] = test system: foxtail, giant; assay: Test C postemergence; type: in vivo, Setaria faberii
# How it was run: as §1
# [13] = test system: johnsongrass; assay: Test C postemergence; type: in vivo, Sorghum halepense
# How it was run: as §1
# [14] = test system: lambsquarters; assay: Test C postemergence; type: in vivo, Chenopodium album
# How it was run: as §1
# [15] = test system: chickweed; assay: Test C postemergence; type: in vivo, Stellaria media
# How it was run: as §1
# [16] = 31 g ai/ha, visual rating, scale 0 to 100 (0 no effect, 100 complete control), 13 to 15 days
# [17] = 62 g ai/ha, scale 0 to 100 (0 no effect, 100 complete control), 13 to 15 days
# [18] = 125 g ai/ha, 13 to 15 days, scale 0 to 100, 0 = no effect, 100 = complete control
# [19] = 250 g ai/ha, scale 0 to 100, 0 is no effect, 100 is complete control
# [20] = Postemergence, 31 g ai/ha, visually evaluated after 13 to 15 days
# [21] = postemergence, 250 g ai/ha, scale 0 to 100 (0 no effect, 100 complete control)
# [22] = postemergence, 62 g ai/ha, scale 0 to 100
# [23] = postemergence, 125 g ai/ha, scale 0 to 100, 0 no effect, 100 complete control
structure (smiles),measurement,setting,value
O=C(NC1CC1)c1cc(CCCl)n(Cc2ccnc(C(F)(F)F)c2)n1 [Compound 144],Velvetleaf plant response rating,"[1]; Postemergence, 500 g ai/ha, 0 to 100 scale (0 no effect, 100 complete control)",90
same,Velvetleaf plant response rating,"[1]; postemergence, 125 g ai/ha, about 10 days, visual rating on 0 to 100 scale (0 no effect, 100 complete control)",80
same,Blackgrass plant response rating,[2]; [16],40
same,Blackgrass plant response rating,[2]; [17],40
same,"Plant response rating, Blackgrass",[2]; [18],90
same,Blackgrass plant response rating,[2]; [19],90
same,Wheat plant response rating,[3]; [16],5
same,Wheat plant response rating,[3]; [17],40
same,"Plant response rating, Wheat",[3]; [18],80
same,Wheat plant response rating,[3]; [19],90
same,Galium plant response rating,[4]; [16],30
same,Galium plant response rating,[4]; [17],80
same,"Plant response rating, Galium",[4]; [18],100
same,Galium plant response rating,[4]; [19],100
same,Corn plant response rating,[5]; [16],5
same,Corn plant response rating,[5]; [17],20
same,"Plant response rating, Corn",[5]; [18],60
same,Corn plant response rating,[5]; [19],85
same,Pigweed plant response rating,[6]; [16],98
same,Pigweed plant response rating,[6]; [17],100
same,"Plant response rating, Pigweed",[6]; [18],100
same,Pigweed plant response rating,[6]; [19],100
same,Ragweed plant response rating,[7]; [16],85
same,Ragweed plant response rating,[7]; [17],90
same,"Plant response rating, Ragweed",[7]; [18],95
same,Ragweed plant response rating,[7]; [19],98
same,Soybean plant response rating,[8]; [16],5
same,Soybean plant response rating,[8]; [17],50
same,"Plant response rating, Soybean",[8]; [18],80
same,Soybean plant response rating,[8]; [19],98
same,Oilseed Rape plant response rating,[9]; [16],80
same,Oilseed Rape plant response rating,[9]; [17],95
same,"Plant response rating, Oilseed Rape",[9]; [18],100
same,Oilseed Rape plant response rating,[9]; [19],100
same,Waterhemp plant response rating,[10]; [16],98
same,Waterhemp plant response rating,[10]; [17],98
same,"Plant response rating, Waterhemp",[10]; [18],100
same,Waterhemp plant response rating,[10]; [19],100
same,"Plant response rating (scale of 0 to 100 where 0 is no effect and 100 is complete control), Wheat",[11]; [20],5
same,"Plant response rating, Wheat",[11]; [21],10
same,Wheat plant response rating,"[11]; postemergence, scale 0 to 100",10
same,"Plant response rating (scale of 0 to 100 where 0 is no effect and 100 is complete control), Foxtail, Giant",[12]; [20],5
same,"Foxtail, Giant plant response rating",[12]; [22],10
same,"Plant response rating, Foxtail, Giant",[12]; [21],25
same,"Plant response rating, Foxtail, Giant",[12]; [23],15
same,"Plant response rating (scale of 0 to 100 where 0 is no effect and 100 is complete control), Johnsongrass",[13]; [20],5
same,Johnsongrass plant response rating,[13]; [22],5
same,"Plant response rating, Johnsongrass",[13]; [21],15
same,"Plant response rating, Johnsongrass",[13]; [23],10
same,"Plant response rating (scale of 0 to 100 where 0 is no effect and 100 is complete control), Lambsquarters",[14]; [20],60
same,Lambsquarters plant response rating,[14]; [22],60
same,"Plant response rating, Lambsquarters",[14]; [21],95
same,"Plant response rating, Lambsquarters",[14]; [23],70
same,"Plant response rating (scale of 0 to 100 where 0 is no effect and 100 is complete control), Chickweed",[15]; [20],70
same,Chickweed plant response rating,[15]; [22],65
same,"Plant response rating, Chickweed",[15]; [21],90
same,"Plant response rating, Chickweed",[15]; [23],80
